From patent EP0275742A1, “5-Hydroxymethyl derivatives of 2-oxazolidinones, their preparation and their therapeutical use” (SYNTHELABO, priority 1986, dated 1988)

Columns and labels:
[1] = molecular target: T1, MAO-B (Rattus norvegicus, UniProt P19643); test: MAO-B inhibition in vitro, rat brain homogenate (protocol of DOSTERT P. et coll.); assay type: biochemical; conditions: for Ki: 20 min preincubation, [14C] phényléthylamine 12 µM, KM = 6 µM, whole brain homogenate of male Sprague-Dawley rat, 1 g tissue/16 ml phosphate buffer pH 7,4, Ki calculated from CI 50; for Ki (A) / Ki (B): selectivity ratio MAO-A over MAO-B, rat brain homogenate
T1 construct: un homogénat de cerveau total de rat mâle Sprague-Dawley; from tissue; host or cells: whole brain homogenate of male Sprague-Dawley rat
T1 sequence (P19643 1-520): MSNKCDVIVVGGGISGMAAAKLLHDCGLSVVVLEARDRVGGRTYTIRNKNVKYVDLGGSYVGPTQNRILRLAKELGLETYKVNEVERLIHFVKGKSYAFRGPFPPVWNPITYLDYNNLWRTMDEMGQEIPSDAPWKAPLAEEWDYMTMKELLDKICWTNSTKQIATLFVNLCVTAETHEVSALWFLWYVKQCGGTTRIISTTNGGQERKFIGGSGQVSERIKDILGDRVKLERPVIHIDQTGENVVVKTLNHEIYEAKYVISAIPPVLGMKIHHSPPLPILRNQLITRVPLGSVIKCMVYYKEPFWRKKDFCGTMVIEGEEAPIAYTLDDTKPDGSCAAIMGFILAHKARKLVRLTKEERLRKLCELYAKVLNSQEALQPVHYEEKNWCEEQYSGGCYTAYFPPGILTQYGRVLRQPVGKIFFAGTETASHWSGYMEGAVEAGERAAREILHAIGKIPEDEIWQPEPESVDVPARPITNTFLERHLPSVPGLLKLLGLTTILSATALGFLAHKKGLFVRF
Protocol: (§1) Cette activité-a été mise en évidence par mise en oeuvre du protocole décrit par DOSTERT P. et coll. dans J. Pharm. Pharmacol., 1983, 35, 161-165; ce protocole est basé sur des tests enzymatiques menés avec ou sans préincubation notamment à 37° C pendant 20 minutes et il permet de mesurer in vitro l'effet inhibiteur à l'égard de la MAO-A et de la MAO-B du cerveau de rat.
(§2) Le tableau IV ci-après rassemble les constantes d'inhibition Ki(A) et Ki(B) respectivement des formes A et B de la MAO, obtenues pour un certain nombre de composés selon l'invention en suivant le protocole ci-dessus appliqué à un homogénat de cerveau total de rat mâle Sprague-Dawley, à 1 g de tissu/16 ml de tampon phosphate de pH 7,4.

[2] = molecular target: T2, MAO-A (Rattus norvegicus, UniProt P21396); test: MAO-A inhibition in vitro, rat brain homogenate (protocol of DOSTERT P. et coll.); assay type: biochemical; conditions: 20 min preincubation; [14C] sérotonine 480 µM, KM = 100 µM; whole brain homogenate of male Sprague-Dawley rat, 1 g tissue/16 ml phosphate buffer pH 7,4; Ki calculated from CI 50
T2 construct: un homogénat de cerveau total de rat mâle Sprague-Dawley; from tissue; host or cells: whole brain homogenate of male Sprague-Dawley rat
T2 sequence (P21396 1-526): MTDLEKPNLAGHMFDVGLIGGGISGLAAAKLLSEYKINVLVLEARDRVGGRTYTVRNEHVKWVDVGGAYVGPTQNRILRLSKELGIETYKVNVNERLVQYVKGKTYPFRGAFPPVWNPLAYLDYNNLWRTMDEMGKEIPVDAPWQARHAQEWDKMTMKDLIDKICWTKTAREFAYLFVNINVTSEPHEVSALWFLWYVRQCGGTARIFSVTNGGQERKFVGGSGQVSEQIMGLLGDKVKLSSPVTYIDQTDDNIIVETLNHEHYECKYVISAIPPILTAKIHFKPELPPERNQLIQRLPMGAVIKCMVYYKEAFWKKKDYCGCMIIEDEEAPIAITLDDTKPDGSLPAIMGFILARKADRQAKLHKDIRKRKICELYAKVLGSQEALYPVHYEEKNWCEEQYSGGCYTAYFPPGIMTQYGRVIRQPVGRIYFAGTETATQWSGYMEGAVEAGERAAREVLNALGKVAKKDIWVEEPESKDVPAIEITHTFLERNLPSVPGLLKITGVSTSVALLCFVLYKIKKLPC
Protocol: as §1, §2

| Compound | Ki [1] [nM] | Ki (A) / Ki (B) [1] | Ki [2] [nM] |
| --- | --- | --- | --- |
| C[C@@H](O)[C@H]1CN(c2ccc(OCC3CCCCC3)cc2)C(=O)O1 [compound 200443] | 40 | 259 | 10300 |
| CC(C)CCOc1ccc(N2C[C@H]([C@@H](C)O)OC2=O)cc1 [compound 200497] | 168 | 36 | 6000 |
| C[C@@H](O)[C@H]1CN(c2ccc(OCc3ccc(F)c(Cl)c3)cc2)C(=O)O1 [compound 200498] | 14 | 634 | 9000 |
| C[C@H](O)[C@@H]1CN(c2ccc(OCc3cccc(Cl)c3)cc2)C(=O)O1 [compound 300872, [(chloro-3 benzyloxy)-4 phényl]-3 (hydroxy-1 étant)-5 oxazolidinone-2] | 1600 | > 0,6 | > 1000 |
| C[C@@H](O)[C@H]1CN(c2ccc(OCc3cccc(Cl)c3)cc2)C(=O)O1 [compound 300873, [(chloro-3 benzyloxy)-4 phényl)-3 (hydroxy-1 éthyl)-5 oxazolidinone-2] | 27 | >640 | > 17200 |
| [(chloro-3 benzyloxy)-4 phényl]-3 (hydroxy-1 éthyl)-5 oxazolidinone-2 [compound 340177] | 343 | 7 | 2260 |
| [(chloro-3 benzyloxy)-4-phenyl]-3 (hydroxy-1 éthyl)-5 oxazolidinone-2 [compound 340176] | 100 | 5 | 476 |
